Like-named read-outs stand apart in the source and are kept apart here.
Key:
[1] = tested on: leukotriene D4-induced contraction of guinea-pig ileum strips; experiment: Leukotriene D4-induced contraction of isolated guinea-pig ileum strips (leukotriene antagonism); settings: leukotriene D4 10^-9 M; atropine and indomethacin present
Source text: Antagonism of leukotriene mediated effects at the receptor level, in addition to inhibition of leukotriene synthesis, is an additional mode of action of some of the present compounds. Obviously, this dual mechanism is of potentially great interest in preventing leukotriene mediated reactions.
Leukotriene antagonists may be identified by observing the contractions elicited in preparations of guinea-pig ileum strips suspended in physiological buffers by addition of pure leukotriene D4. The ileum strips are connected to an isotonic transducer, and the contractions are continuously recorded on a multichannel recorder.
Before addition of leukotriene D4, atropine and indomethacin are added to the buffer in order to block any cholinergic or prostaglandin-mediated contractile effects. Test compounds to be studied with respect to leukotriene antagonism are dissolved in dimethylsulphoxide (DMSO) and added to the organ bath 2 minutes prior to addition of leukotriene D4 at 10^-9 M (final concentration), the final concentration of DMSO being 0.1%, a concentration which can be shown not to affect the ileum response to leukotriene D4. The test compounds may be added at various concentrations, often beginning at 10^-6 M and then decreasing the concentration in case of antagonism.

rat peritoneal mast cell = experiment: Rat peritoneal mast cell histamine release; assay type: cell-based
Source text: Products formed by the enzyme responsible for the first step in leukotriene synthesis, 5-lipoxygenase, which is probably the target enzyme of compounds of the present invention, play a role as mediators of mast cell degranulation. One of the effects of mast cell degranulation is the release of histamine. Thus, 5-lipoxygenase inhibitors may suppress histamine release from mast cells.
In order to investigate this possibility, cells obtained from washings of the peritoneal cavity of rats, were studied. These peritoneal washings contain mainly macrophages and mast cells. The mast cells were passively sensitized with IgE-antibodies to ovalbumin, and then challenged with the antigen, ovalbumin, to induce histamine release. Alternatively, the unsensitized mast cells were exposed to an […], compound 48/80*, which induces histamine release independently of immunologic mechanisms. Histamine released to the medium after degranulation of the peritoneal mast cells was measured by a fluorometric method.
* (the condensation product of N-methyl-p-methoxyphenethylamine with formaldehyde)

[2] = tested on: asthmatic reaction (airway resistance) in guinea-pigs; experiment: Asthmatic reaction in ovalbumin-hypersensitive guinea-pigs (Konzett-Rossler); assay type: in vivo, guinea-pig; settings: ovalbumin i.v. challenge; mepyramine, indomethacin and propranolol pretreated
Source text: The other method was used to measure a physiological consequence of leukotriene release in the lungs, an asthmatic attack. Guinea-pigs hypersensitive to ovalbumin were anaestesized and mechanically ventilated with a constant airvolumen ad modum Konzett-Rossler. The animals were pretreated with mepyramine, indomethacin and propranolol to avoid interference with endogenous production of histamine, prostaglandins and β-adrenergic mechanisms, respectively. They were then challenged with an intravenous injection of ovalbumin, and the increase in airway resistance was measured by the respiratory overflow.

release of leukotrienes = experiment: A 23187-induced leukotriene release in the peritoneal cavity of rats in vivo; set-up: species or system rat; settings: administered prior to intraperitoneal A 23187
Experimental: Two in vivo methods were used to assess the effect of either oral or parenteral administration of the compounds to experimental animals on the release of leukotrienes. In the first method, calcium ionophore A 23187 was injected into the peritoneal cavity of adrenalectomized and anaestesized rats. 5 minutes later the cavity was washed, and the leukotrienes were extracted with ethanol and redissolved in water or buffer. The amount of leukotriene D4 released in response to A 23187 was determined by bioassay, using the contraction of an isolated guinea-pig ileum-strip as indicator. Leukotriene C4 and B4 were measured by commercially available radioimmunoassays (New England Nuclear, Dreieich, West Germany, and The Radiochemical Centre, Amersham, U. K., respectively).

cyclooxygenase = experiment: Synthesis of cyclooxygenase products in A 23187-stimulated rat peritoneal cells (same assay); assay type: cell-based; settings: final concentrations from 10^-6 M and above
Experimental: (§1) The biological activity of the present compounds was determined both in vitro and in vivo. The following method was used to assay 5-lipoxygenase activity in vitro: Rat peritoneal cells were harvested by i.p. injection of 10 ml Hank's balanced salt solution (GIBCO), cat. No. 4025, U.S.A.) containing 12.5 U/ml sodium heparin (Leo, Denmark) in anaesthesized rats. The resulting cell suspension, which mainly contained macrophages, was transferred to a test tube and washed twice by centrifugation (200 g, 10 min.) and resuspended in Hank's balanced salt solution containing 0.5% bovine serum albumin (Sigma Chem. Co., U.S.A.). The cells from 6 rats were finally resuspended in Hank's balanced salt solution containing 5 μCi (1-^14 C) arachidonic acid (The Radiochemical Centre, Amersham, U.K.) and incubated for 90 minutes at 30° C. This caused labelling of cell membrane phospholipids as radioactive arachidonic acid was incorporated in the 2-position of the glycerol moiety. Excess arachidonic acid was then removed by washing the cells twice as described above. The cells were finally resuspended in the same solution at 10^7 cells/ml. 475 μl of the cell suspension was preincubated at 37° C. for 5 minutes with either 5 μl DMSO (control tube), or 5 μl of a drug solution in DMSO. Then 20 μl of a mixture of equal volumes of the calcium ionophore A 23187, 10^-4 M in ethanol (Calbiochem, U.S.A.), and 0.5M CaCl2 in water was added. The final concentration of A 23187 was thus 2×10^-6 M, transferred to an ice-bath and centrifugated for 10 minutes at 3,000 g (4° C.). An aliquot of the supernatant was counted by liquid scintillation spectrometry in order to calculate the total radioactive release induced by A 23187 in presence of drugs. […] Radioactive spots were detected by autoradiography (AGFA-GEVAERT, Osray-RPI X-ray film, Belgium), and changes induced by drugs in the metabolic pattern of arachidonic acid were quantified by a laser densitometer (LKB, Ultroscan™ 2202, Bromma, Sweden) in combination with an integrating computer (SP 4100, SpectraPhysics, San Jose, Calif., U.S.A.). […]

5-lipoxygenase = 5-lipoxygenase activity in vitro in A 23187-stimulated rat peritoneal cells (radiolabelled arachidonic acid metabolites); assay type: cell-based; settings: final concentrations from 10^-6 M and above
Experimental: as §1, with “This caused labelling of cell membrane phospholipids as radioactive arachidonic acid was incorporated in the 2-position of the glycerol moiety. Excess arachidonic acid was then removed by washing the cells twice as described above. The cells were finally resuspended in the same solution at 10^7 cells/ml. 475 μl of the cell suspension was preincubated at 37° C. for 5 minutes with either 5 μl DMSO (control tube), or 5 μl of a drug solution in DMSO. Then 20 μl of a mixture of equal volumes of the calcium ionophore A 23187, 10^-4 M in ethanol (Calbiochem, U.S.A.), and 0.5M CaCl2 in water was added. The final concentration of A 23187 was thus 2×10^-6 M, transferred to an ice-bath and centrifugated for 10 minutes at 3,000 g (4° C.).” left out

[3] = tested on: IL-8 mRNA in peripheral blood mononuclear cells (PBMC); experiment: IL-8 mRNA synthesis in LPS-stimulated peripheral blood mononuclear cells (cDNA probe); assay type: cell-based; settings: submicromolar concentrations
Source text: (§2) These effects were obtained using submicromolar concentrations of the two compounds.

IL-1 mRNA in PBMC = experiment: IL-1 mRNA production in LPS-stimulated PBMC; assay type: cell-based
Source text: as §2

[4] = tested on: IL-1 release from inflammatory cells; experiment: IL-1 release from inflammatory cells; assay type: cell-based
Source text: as §2

gene expression of IL-8 = experiment: Gene expression of IL-8 in endothelial cells, fibroblasts and keratinocytes stimulated by LPS or IL-1; assay type: cell-based
Source text: as §2

[5] = antigen ovalbumin, passively sensitized mast cells, read-out: Inhibition (%) of histamine release induced by Antigen
[6] = compound 48/80, unsensitized mast cells, read-out: Inhibition (%) of histamine release induced by Cp. 48/80

Row | SMILES | concentration at which leukotriene D4-induced contraction is inhibited [1] | inhibition at 10 µM (rat peritoneal mast cell; [5]) [%] | inhibition at 10 µM (rat peritoneal mast cell; [6]) [%] | further results
1 | Clc1cc(OCc2ccncc2)ccc1NCc1ccccc1 [Ex. 78, part C, 2-Chloro-4-(4'-pyridylmethoxy)-N-benzylaniline] | submicromolar range | 96 | 95 | –
2 | CCCNc1ccc(OCc2ccccn2)cc1 [Ex. 70] | – | 100 | 45 | –
3 | c1ccc(CNc2cccc(OCc3ccc4ccccc4n3)c2)cc1 [Example 39, 3-(2'-Quinolylmethoxy)-N-benzylaniline] | submicromolar range | 100 | 95 | –
4 | CNc1cccc(OCc2ccc3ccccc3n2)c1 [11 (part C), 3-(2'-Quinolylmethoxy)-N-methylaniline] | submicromolar range | – | – | –
5 | CN(C)c1cccc(OCc2ccc3ccccc3n2)c1 [Example 18, 3-(2'-Quinolylmethoxy)-N,N-dimethylaniline] | submicromolar range | – | – | –
6 | NCCCCCCNc1ccc(OCc2ccc3ccccc3n2)cc1 [Ex. 66, 4-(2'-Quinolylmethoxy)-N-1"-(6"-amino-n-hexyl)aniline] | – | 100 | 65 | –
7 | Clc1cc(NCc2ccccc2)ccc1OCc1ccncc1 [Ex. 79, part C, 3-Chloro-4-(4'-pyridylmethoxy)-N-benzylaniline] | – | 100 | 95 | –
8 | CNc1ccc(OCc2cccnc2)cc1 [OT 3447, 4-(3'-Pyridylmethoxy)-N-methylaniline] | – | – | – | asthmatic reaction [2]: significantly reduced; leukotriene B4 formation (radioimmunoassay) (release of leukotrienes): substantial inhibition; leukotriene C4 formation (radioimmunoassay) (release of leukotrienes): substantial inhibition; leukotriene D4 formation (bioassay, guinea-pig ileum-strip) (release of leukotrienes): substantial inhibition; synthesis of prostaglandin D2 (cyclooxygenase): not affected; synthesis of the cyclooxygenase product HHT (cyclooxygenase): not affected; synthesis of thromboxane B2 (cyclooxygenase): not affected; production of 5-HETE (5-lipoxygenase): significant and specific decrease; production of leukotriene B4 (5-lipoxygenase): significant and specific decrease
9 | c1ccc(CNc2cccc(OCc3ccccn3)c2)cc1 [Ex. 68, 3-(2'-Pyridylmethoxy)-N-benzylaniline] | – | 45 | 17 | –
10 | CCCCNc1ccc(OCc2ccc3ccccc3n2)cc1 [Example 22, 4-(2'-Quinolylmethoxy)-N-n-butylaniline] | submicromolar range | 100 | 75 | –
11 | CCCN(CCC)c1ccc(OCc2ccc3ccccc3n2)cc1 [Ex. 77, 4-(2'-Quinolylmethoxy)-N,N-di-n-propylaniline] | – | 100 | 92 | –
12 | O=C(O)c1ccc(CN(Cc2cccc(F)c2)c2ccc(OCc3ccc4ccccc4n3)cc2)cc1 [ETH615, 4-(2'-quinolylmethoxy)-N-(3"-fluorobenzyl)-N-(4'"-carboxybenzyl)aniline] | – | – | – | synthesis of IL-8 messenger RNA [3]: inhibit the synthesis of messenger RNA; IL-1 mRNA production (IL-1 mRNA in PBMC): inhibits IL-1 mRNA production; IL-1 release [4]: suppression of IL-1 release; gene expression of IL-8 in endothelial cells (gene expression of IL-8; endothelial cells stimulated by LPS or IL-1): suppress the gene expression of IL-8; gene expression of IL-8 in fibroblasts (gene expression of IL-8; fibroblasts stimulated by LPS or IL-1): suppress the gene expression of IL-8; gene expression of IL-8 in keratinocytes (gene expression of IL-8; keratinocytes stimulated by LPS or IL-1): suppress the gene expression of IL-8
13 | CCCCNc1cccc(OCc2ccc3ccccc3n2)c1 [Example 23, 3-(2'-Quinolylmethoxy)-N-n-butylaniline] | submicromolar range | – | – | –
14 | CNc1ccc(OCc2ccc3ccccc3n2)cc1 [Ex. 10, part C, 4-(2'-Quinolylmethoxy)-N-methylaniline] | – | 51 | 19 | –
15 | CC(=O)Nc1cccc(OCc2ccc3ccccc3n2)c1 [11 (part A), 3-(2'-Quinolylmethoxy)acetanilide] | submicromolar range | – | – | –
16 | O=C(O)c1cccc(CN(Cc2ccccc2)c2ccc(OCc3ccc4ccccc4n3)cc2)c1 [ETH647] | – | – | – | synthesis of IL-8 messenger RNA [3]: inhibit the synthesis of messenger RNA
17 | c1ccc(CNc2ccc(OCc3ccc4ccccc4n3)cc2)cc1 [Ex. 38, 4-(2'-Quinolylmethoxy)-N-benzylaniline] | – | 91 | 85 | –

Source: patent publication US5157039A, “2-quinolinyl methoxy compounds, medical uses and intermediates therefor” (Leo Pharmaceutical Products Ltd., priority 1985, dated 1992)
